Tested on: pig kidney transplants in Cynomolgus monkeys
Test: Pig to monkey kidney xenotransplantation

**Q.** How did the “suppression of natural antibody function” value (6 mg/kg/day, i.v., pig to cynomolgus kidney transplants) turn out when `N=C(N)NCCCCCCC(=O)NC(O)C(=O)NCCCCNCCCN` (stereo not shown) [DSG, 15-deoxyspergualin] was run?
**A.** The value was “useful in suppressing natural antibody function”.

**Q.** And the “usefulness of combination treatment” value (cyclosporine 15 mg/kg/day 28 days + 15-deoxyspergualin 6 mg/kg/day two weeks + pig SCF and IL-3 10 μg/kg/day i.v. two weeks, pig grafts and stem cells)?
**A.** The value was “useful”.

**Q.** What about the “day until which the pig kidney functioned” value (splenectomy + pig liver perfusion, cyclosporine 15 mg/kg/day iv and DSG 6 mg/kg/day iv post-transplant, removed on day 8) of the same compound?
**A.** The value was 7 days.

**Q.** What about the “IgM natural antibodies in serum after liver perfusion” value (with cyclosporine 15 mg/kg/day iv and DSG 6 mg/kg/day iv) of the same compound?
**A.** The value was “did not appear in the serum thereafter”.
